Assay results from US20230310573A1, “Stabilized Vaccine Compositions” (priority 2020, published 2023).

Columns and labels:
[1] = target: T1, UFV170091 (HA of B/Massachussetts/2/12) (Influenza B virus, UniProt P03460); assay: Melting temperature (Tm50) of influenza B HA trimer by DSF; format: physicochemical; conditions: 1:6 HA trimer:compound ratio
T1 construct: Ectodomain of wild type HA of B/Massachussetts/2/12 fused to a foldon domain at the C-terminus; His-tag (C); made in house; host or cells: ExpiCHO

[2] = target: T2, UFV180300 (HA of B/Colorado/06/2017) (Influenza B virus, UniProt P03460); assay: as above; format: physicochemical; conditions: 1:6 HA trimer:compound ratio
T2 construct: SortA (sortase) tag (C); His-tag (C); made in house; host or cells: ExpiCHO

[3] = target: UFV180933 (HA of B/Brisbane/60/08) (Influenza B virus, UniProt P03460); format: cell-based; conditions: 1:90 HA trimer:compound ratio
[4] = target: ectodomain of H1N1 A/Brisbane/59/2007 (SEQ ID NO: 7) (Influenza A virus, UniProt P03452); assay: Heat stress of influenza A HA ectodomain, trimer and monomer content by analytical SEC; format: physicochemical; conditions: 6 weeks at 40 degree Celsius; 1:6 HA trimer:compound ratio

Compound | increase of the Tm (DSF) [1] | increase of the Tm (DSF) [2] | monomer and trimer content in supernatant (SEC) [3] | trimer content after heat stress (SEC) [4]
c1ccc(CN2CCC(Nc3ccccc3)(c3ccccc3)CC2)cc1 [XXVII, 1-benzyl-N,4-diphenyl-piperidin-4-amine] | 0.5 °C | 1 °C | hardly monomer and mostly trimer | –
N#CCCCn1c(CN2C(=O)C3(CN(C(=O)C4(O)CC4)C3)c3ccccc32)cc2cc(Cl)ccc21 [Compound XV, 4-[5-chloro-2-[[1-(1-hydroxycyclopropanecarbonyl)-2′-oxo-spiro[azetidine-3,3′-indoline]-1′-yl]methyl]indol-1-yl]butanenitrile] | – | – | – | preserved the trimer content
